{"source": "patent US12221631B2", "about": "“Engineered migrasome, method for preparing same, and uses thereof” (priority 2021, dated 2025)", "key": {"[1]": {"system": "Tspan4-GFP-expressing NRK cells", "assay": "Formation of engineered migrasomes after latrunculin A treatment and step-wise hypotonic stimulation", "assay_type": "cell-based, rat", "settings": "latrunculin A 0.25, 0.5, 1 μM in DPBS 10 min, then three-step hypotonic stimulation; promotion dose-dependent", "text": "The results after step-wise hypotonic treatment were shown in FIG. 2A, and the statistical results of the number of engineered migrasomes produced per cell were shown in FIG. 2B."}, "[2]": {"system": "Tspan4-GFP-expressing NRK cells", "settings": "sodium chloride in DPBS replaced by chloride of the cation at equal molar concentration; five-step hypotonic stimulation", "method": "Next, the effect of different cations on the formation of engineered migrasomes was tested."}}, "data": [{"smiles": "C/C1=C/C(=O)O[C@@H]2C[C@@H](CC[C@H](C)/C=C\\C=C\\CC1)O[C@@](O)([C@@H]1CSC(=O)N1)C2", "note": "[latrunculin A]", "values": [{"measurement": "number of engineered migrasomes produced per cell", "setting": "[1]", "result": "significantly promote an increase in the number of engineered migrasomes"}]}, {"smiles": "[Cl-].[Na+]", "note": "[sodium ions, sodium chloride]", "values": [{"measurement": "ability to promote the formation of engineered migrasomes", "setting": "[2]", "result": "relatively weak ability"}]}, {"smiles": "[Cl-].[K+]", "note": "[potassium ions, potassium chloride]", "values": [{"measurement": "ability to promote the formation of engineered migrasomes", "setting": "[2]", "result": "significantly stronger ability"}]}, {"smiles": "[Cl-].[Cs+]", "note": "[cesium ions, cesium chloride]", "values": [{"measurement": "ability to promote the formation of engineered migrasomes", "setting": "[2]", "result": "significantly stronger ability"}]}, {"smiles": "C[N+](C)(C)CCO.[Cl-]", "note": "[choline ions, choline chloride]", "values": [{"measurement": "ability to promote the formation of engineered migrasomes", "setting": "[2]", "result": "significantly stronger ability"}]}]}
